From patent US20220401483A1, “COMBINATION OF A T CELL THERAPY AND (S)-3-[4-(4-MORPHOLIN-4-YLMETHYL-BENZYLOXY)-L-OXO-L,3-DIHYDRO-ISOINDOL-2-YL]-PIPERIDINE-2,6-DIONE” (Juno Therapeutics, Inc., priority 2019, published 2022)

Assays:
Type in all cases: cell-based, human
Ikaros = assay: Intracellular Ikaros expression in stimulated anti-CD19 CAR-expressing T cells (flow cytometry MFI)
Procedure: (§1) T cell compositions containing anti-CD19 CAR-expressing T cells were generated from leukapheresis samples from three healthy human adult donors by a process including immunoaffinity-based selection of T cells (including CD4+ and CD8+ cells) from the samples, resulting in two compositions, enriched for CD8+ and CD4+ cells, respectively. The cells were incubated in the presence of (S)-3-[4-(4-morpholin-4-ylmethyl-benzyloxy)-1-oxo-1,3-dihydro-isoindol-2-yl]-piperidine-2,6-dione (Compound A) or 3-(5-amino-2-methyl-4-oxo-4H-quinazolin-3-yl)-piperidine-2,6-dione (Compound B), and expression of the transcription factors Ikaros and Aiolos was assessed. Cells of the enriched CD4+ and CD8+ compositions were separately activated with anti-CD3/anti-CD28 beads and subjected to lentiviral transduction with a vector encoding an anti-CD19 CAR. The anti-CD19 CAR contained an anti-CD19 scFv derived from a murine antibody (variable region derived from FMC63), an immunoglobulin-derived spacer, a transmembrane domain derived from CD28, a costimulatory region derived from 4-1BB, and a CD3-zeta intracellular signaling domain. The expression construct in the viral vector further contained sequences encoding a truncated receptor, which served as a surrogate marker for CAR expression, which was separated from the CAR sequence by a T2A ribosome skip sequence. Transduced populations then were separately incubated in the presence of stimulating reagents for cell expansion. Expanded CD8+ and CD4+ cells were formulated and cryopreserved separately and stored. The cryopreserved CD4+ and CD8+ anti-CD19 CAR-expressing cells from each donor were thawed, and combined at approximately a 1:1 CAR+CD4+:CD8+ ratio prior to use. Approximately 2.5×10^5 cells of the generated CAR+ T cell composition were stimulated overnight with 1 μg/ml of a CAR-specific anti-idiotypic antibody in the presence of 3-(5-amino-2-methyl-4-oxo-4H-quinazolin-3-yl)-piperidine-2,6-dione (Compound B) or (S)-3-[4-(4-morpholin-4-ylmethyl-benzyloxy)-1-oxo-1,3-dihydro-isoindol-2-yl]-piperidine-2,6-dione (Compound A) at concentrations ranging from 10 to 10000 nM or a vehicle control overnight at 37° C., 5% C02. Following overnight incubation, anti-CD19 CAR-expressing T cells were stained with antibodies and analyzed by flow cytometry to assess intracellular levels of Ikaros and Aiolos in CD4+ CAR+ or CD8+ CAR+ cells, as measured by median fluorescence intensity (MFI). Median fluorescence intensity (MFI) values for Ikaros and Aiolos were normalized and calculated as a percentage relative to vehicle control. […] The EC50 for reducing Aiolos and Ikaros expression was calculated as determined from the concentration of the inhibitor that reduced Aiolos or Ikaros MFI to 50% of its maximal MFI in the absence of the inhibitor.

RL tumor spheroids = assay: RL tumor spheroid model with anti-CD19 CAR T cells; conditions: Day 4; 1 μM Compound B, 0.01 μM or 0.1 μM Compound A
Procedure: Cytolytic activity was also assessed in a spheroid model. About 5,000 RL cells were plated 48 hours prior to addition of 5,000 anti-CD19 CAR T cells (1:1 E:T ratio). Anti-CD19 CAR T cells were co-cultured with RL tumor spheroids, in the presence of Compound B (1 μM) or Compound A (0.001 μM, 0.01 μM or 0.1 μM)).

Aiolos = assay: Intracellular Aiolos expression in stimulated anti-CD19 CAR-expressing T cells (flow cytometry MFI)
Procedure: as §1

RL cells = assay: Rescue of chronically stimulated CAR T cells cultured with RL cells; conditions: Compound B 1 μM, Compound A 0.001, 0.01 or 0.1 μM
Procedure: The RL cells were further used to assess the ability of immunomodulatory compounds to rescue or reverse the anti-CD19 CAR T cells from exhaustion. Anti-CD19 CAR-expressing T cells were stimulated under conditions to induce chronic stimulation and then were subsequently treated (rescue) with Compound B (1 μM) or Compound A (0.001 μM, 0.01 μM or 0.1 μM), or a vehicle control. Long-term, chronic stimulation was carried out by stimulation of CAR T cells with 30 μg/mL plate-bound anti-idiotypic (anti-ID) antibody for 6 days, substantially as described in Example 3. After the chronic stimulation, the CAR-T cells were cultured with RL cells in the presence of Compound B or Compound A. Cytolytic activity was assessed over time by measuring tumor cell number in the culture.

[1] = overnight incubation, 1 μg/ml anti-idiotypic antibody, average of donors (range, 95% confidence interval)

Cc1nc2cccc(N)c2c(=O)n1C1CCC(=O)NC1=O (stereo not drawn) [Compound B, 3-(5-amino-2-methyl-4-oxo-4H-quinazolin-3-yl)-piperidine-2,6-dione, reference compound]
intracellular Ikaros expression (Ikaros; 10 to 10000 nM, overnight): […] | EC50 (Ikaros; [1]): […] | sensitivity of RL tumor spheroids to compound (RL tumor spheroids): sensitive | intracellular Aiolos expression (Aiolos; 10 to 10000 nM, overnight): […] | EC50 (Aiolos; [1]): […] | CAR T cell cytolytic activity, RL cell growth (RL cells): substantially improved
